The results in this text go back to patent US20250263457A1, “Pharmaceutical Composition for Preventing and Treating Liver Disease Comprising Novel Peptide” (Pusan National University Industry-University Cooperation …, priority 2024, published 2025).

Test [1] relates to alcohol-related liver disease mouse model. Nature of the test: Inflammatory response (CD68, F4/80 immunohistochemistry) and alcohol metabolism/apoptosis markers (Western blot) in liver tissue of mouse model. Type of test: in vivo, C57BL/6 male mice. The settings on record: 3.3 μg/kg i.p. every other day for three weeks, vs vehicle. From the text:
(§1) To prepare alcohol-related liver disease mice, 8-week-old C57BL/6 male mice were fed with a Lieber DeCarli liquid diet (Dyets, 710260) containing 5% EtOH for 9 weeks, and then injected intraperitoneally with a vehicle (PBS) every other day along with feeding liquid diet for additional 3 weeks. As a control group for the EtOH diet, mice fed with a pair Lieber DeCarli liquid diet (Dyets, 710027) having the same total calories as the EtOH diet were used (FIG. 4A).
Specifically, the liver tissue extracted from the mouse was fixed by treating 10% neutral buffered formalin, and then embedded using paraffin. The liver tissue paraffin block was cut into 4 μm-thick sections to produce tissue section slides. After deparaffinization and hydration processes of the tissue section slides, 3% hydrogen peroxide was treated to block endogenous peroxidase. Then, the section slides were treated with 10 mM sodium citrate buffer (pH 6.0) and heated for 10 minutes or treated with 0.2% pepsin to induce antigen retrieval. To inhibit non-specific binding of antibodies, blocking (Dako, X9090) was performed, and then the primary antibodies were treated and reacted overnight at 4° C. At this time, the primary antibodies used were anti-CD68 antibody (Abcam, ab125212) and anti-F4/80 antibody (Abcam, ab6640). The section slides were washed with TBST and then treated with secondary antibodies and reacted. The secondary antibodies used were EnVision+ Single Reagents (HRP, Rabbit) (Dako, K4003) and Goat anti-rat IgG-heavy and light chain antibodies (HRP conjugated) (BETHYL, A110-105P). Thereafter, the section slides were washed with TBST and treated with 3,3′-diaminobenzidine (DAB) (Dako, K3466) to develop the color. After the color development, the tissues of the section slides were dehydrated, mounted, fixed, and then observed under a microscope.
(§2) The alcohol-related liver disease mouse model established by the method of Example 5.1 was administered vehicle (PBS) or peptide YJ (3.3 μg/kg) intraperitoneally every other day for three weeks, and then blood was collected and liver tissue was extracted to confirm the liver disease treatment effect of peptide YJ.
The degree of inflammatory response in the liver tissue extracted from the experimental mice of Example 5.3 was confirmed in the same manner as in Example 5.3.2.
In addition, the expression of alcohol metabolism markers and apoptosis marker proteins was confirmed through Western blot. Western blot was performed in the same manner as in Example 2. At this time, the primary antibodies used were anti-CYP2E1 antibody ([…], ab125212), anti-4HNE antibody (Abcam, ab46545), anti-cleaved caspase-3 antibody (Cell Signaling Technology, 9661s), anti-caspase-3 antibody (Cell Signaling Technology, 9662s), and anti-GADPH antibody.
For orientation: In western blotting, separated proteins are transferred to a membrane and probed.

Test [2] relates to human pHSCs. Nature of the test: Cell survival of human pHSCs by MTS assay. The settings on record: 0, 20, 40, or 100 ng/ml; 24 and 48 hours; vs PBS control (FIG. 2B). The test is classed as cell-based. On the procedure:
100 μl of human pHSCs (5×10^4 cells/ml) were seeded into 96 wells and cultured overnight. The cells were treated with peptide YJ at a concentration of 0, 20, 40, or 100 ng/ml and then further cultured. After 24 and 48 hours, cell survival for each cell was confirmed through MTS assay (Cell titer proliferation assay, G3580, Promega) (FIG. 2A). At this time, human pHSCs treated with PBS were used as a control group (vehicle).

In test [3] the test system is human pHSCs. Description: Western blot of HSC activation/inactivation markers in human pHSCs. Type of test: cell-based. Conditions: 40 ng/ml, vs control (FIG. 2C). The procedure: To confirm the expression of cell activation markers, human pHSCs (5× 10^5 cells/ml) were treated with peptide YJ at a concentration of 20 or 40 ng/ml, and then proteins were extracted and subjected to Western blotting. At this time, as primary antibodies, anti-α-SMA antibody (Sigma-Aldrich, A5228), anti-GAPDH antibody (Bio-rad, MCA4739), anti-GFAP antibody (Dako, z0334), and anti-TFG-β antibody (Cell Signaling Technology, 3711) were used. In addition, as secondary antibodies, Goat anti-mouse IgG F(ab′) 2 antibody (HRP conjugate) (Enzo, ADI-SAB-100-J) and Goat anti-rabbit IgG antibody (HRP conjugate) (Enzo, ADI-SAB-300-J) were used.

The test system of a further test is CD44. Description: Western blot of CD44ICD in nuclear proteins of human pHSCs (CD44 cleavage). The test is classed as cell-based. The settings on record: 40 ng/ml, 24 hours, vs control (FIG. 3A). On the procedure:
Specifically, pHSCs were treated with peptide YJ (40 ng/ml) for 0, 6, 12, or 24 hours, and then nuclear proteins were isolated. Western blotting was performed on the isolated nuclear proteins to confirm the expression of CD44 and CD44ICD. The nuclear proteins were obtained by a nuclear protein fractionation method.
At this time, the primary antibodies were used with anti-CD44 antibody (Abcam, ab157107), anti-CD44ICD antibody (Cosmo Bio, KAL-KO601), and anti-LAMIN B1 antibody (Abcam, ab16048), and the secondary antibody was used with Goat anti-Rabbit IgG antibody (HRP conjugate) (Enzo, ADI-SAB-300-J). In addition, human pHSCs treated with PBS were used as a control group. The CD44 and CD44ICD expression results were normalized to the expression level of LAMIN B1, which was an internal control group, and expressed as mean±SEM values obtained from the same experiment repeated three times.

The test system of test [4] is alcohol-related liver disease mouse model. Nature of the test: Liver size/weight and serum AST/ALT in alcohol-related liver disease mouse model. Type of test: in vivo, C57BL/6 male mice. On the procedure: as §1
Specifically, 20 μl of mouse serum was mixed with 100 μl of a GOT buffer or GPT buffer, and then reacted at 37° C. Thereafter, the mixture was added with a 0.0198% 2,4-dinitrophenylhydrazine colorimetric solution (100 μl), and then further reacted at room temperature for 20 minutes. Thereafter, the mixture was added with 0.4 N NaOH (1 ml) to terminate the reaction, and absorbance (505 nm) was measured. The absorbance was expressed in international units per liter (IU/L).
as §2
The weight and degree of tissue damage of the liver tissue extracted from the experimental mice of Example 5.3 were measured in the same manner as in Example 5.2.1.

Setting [5] is: EtOH diet group, Western blot (FIG. 6F).
The mark [6] stands for this setting: 3.3 μg/kg i.p. every other day for three weeks, EtOH diet group, vs vehicle (FIG. 6C).

As for “peptide YJ: TSG-6 fragment: core domain RSGKYKLTYAEAKA plus C-terminal extension VCEFEGGHLATYKQLEAARKIGFHVCAAGWMAK (SEQ ID NO: 9); TSG-6 mimetic (RSGKYKLTYAEAKAVCEFEGGHLATYKQLEAARKIGFHVCAAGWMAK; peptide 4)”, in test [1] (EtOH diet group, IHC (FIG. 6E)), the “expression of CD68 in liver tissue” value is “significantly reduced” and the “expression of F4/80 in liver tissue” value is “significantly reduced”. In test [1] (setting [5]), the “expression of 4HNE in liver” value was “did not show a significant difference” and the “expression of CYP2E1 in liver” value is on record as “did not show a significant difference”. In addition, the “expression of cleaved caspase-3 (apoptosis marker) in liver” value in test [1] (Western blot (FIG. 6F)) is listed as “decreased”. The “cell survival and proliferation” value in the test on human pHSCs [2] was “no changes in cell survival and proliferation were observed”. In addition, in the test with human pHSCs [3], the “expression of GFAP (inactivation marker)” value is recorded as “increased” and the “expression of activation markers of pHSCs” value is given as “decreased”. Also, the “nuclear expression and accumulation of CD44ICD” value in the test on CD44 is listed as “significantly reduced”. Moreover, in test [4] (setting [6]), the “serum ALT level” value is on record as “decreased” and the “serum AST level” value was “decreased”. In test [4] (3.3 μg/kg intraperitoneally every other day for three weeks, between groups (FIGS. 6A, 6B)), the “size and weight of the liver tissue” value is on record as “did not show statistically significant differences”.
